Columns and labels:
Test in all cases: relative viability (nuclei count vs DMSO), 5 days (fraction); higher = more cells survive
Vandetanib + Pemetrexed = compound: COc1cc2/c(=N/c3ccc(Br)cc3F)nc[nH]c2cc1OCC1CCN(C)CC1 [Vandetanib] + Nc1nc2[nH]cc(CCc3ccc(C(=O)N[C@@H](CCC(=O)O)C(=O)O)cc3)c2c(=O)[nH]1 [Pemetrexed] (partner 0.2 µM)
Method in brief: (§1)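 Relative viability is defined as nuclei in treated wells over nuclei in vehicle wells. Duplicate plates were run and medians reported. Lung cancer cell lines in 1536-well plates were dosed by pin tool one day after seeding, with one drug or with a fixed anchor-drug dose plus five library-drug doses (not always all listed) in √10 steps, and nuclei were counted after 5 days.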

Vandetanib + Crizotinib = compound: COc1cc2/c(=N/c3ccc(Br)cc3F)nc[nH]c2cc1OCC1CCN(C)CC1 [Vandetanib] + C[C@@H](Oc1cc(-c2cnn(C3CCNCC3)c2)cnc1N)c1c(Cl)ccc(F)c1Cl [Crizotinib] (partner 1 µM)
Method in brief: as §1

CUDC-101 + Crizotinib = compound: C#Cc1cccc(Nc2ncnc3cc(OC)c(OCCCCCCC(=O)NO)cc23)c1 [CUDC-101] + C[C@@H](Oc1cc(-c2cnn(C3CCNCC3)c2)cnc1N)c1c(Cl)ccc(F)c1Cl [Crizotinib] (partner 1 µM)
Method in brief: as §1

[1] = compound: C1=CC=C2C(=C1)N=C(S2)C(C#N)C3=NC(=NC=C3)NCCC4=CN=CC=C4 + CC1(C)CCC(c2ccc(Cl)cc2)=C(CN2CCN(c3ccc(C(=O)NS(=O)(=O)c4ccc(N[C@H](CCN5CCOCC5)CSc5ccccc5)c(S(=O)(=O)C(F)(F)F)c4)cc3)CC2)C1 [Navitoclax] (partner 0.5 µM)
Method in brief: as §1

Cell Line UMC-11 has a relative viability (Vandetanib + Pemetrexed; first compound 0.02 µM) of 0.764, a relative viability (Vandetanib + Pemetrexed; first compound 0.06325 µM) of 0.799 and a relative viability (Vandetanib + Pemetrexed; first compound 0.2 µM) of 0.801. The relative viability (Vandetanib + Pemetrexed; first compound 0.6325 µM) was 0.721, the relative viability (Vandetanib + Pemetrexed; first compound 2 µM) was 0.667 and the relative viability (Vandetanib + Crizotinib; first compound 0.02 µM) was 0.588. For the same cell line, the relative viability (Vandetanib + Crizotinib; first compound 0.06325 µM) was 0.654, the relative viability (Vandetanib + Crizotinib; first compound 0.2 µM) was 0.632 and the relative viability (Vandetanib + Crizotinib; first compound 0.6325 µM) was 0.494. It also gave a relative viability (Vandetanib + Crizotinib; first compound 2 µM) of 0.61, a relative viability (CUDC-101 + Crizotinib; first compound 0.01 µM) of 0.67 and a relative viability (CUDC-101 + Crizotinib; first compound 0.03162 µM) of 0.577. For the same cell line, the relative viability (CUDC-101 + Crizotinib; first compound 0.1 µM) was 0.404, the relative viability (CUDC-101 + Crizotinib; first compound 0.3162 µM) was 0.215 and the relative viability (CUDC-101 + Crizotinib; first compound 1 µM) was 0.136. It also gave a relative viability ([1]; first compound 0.005 µM) of 0.28, a relative viability ([1]; first compound 0.01581 µM) of 0.304 and a relative viability ([1]; first compound 0.05 µM) of 0.294. For the same cell line, the relative viability ([1]; first compound 0.1581 µM) was 0.307 and the relative viability ([1]; first compound 0.5 µM) was 0.306.
